Measured values as given in patent US20210163437A1, “DERIVATIVES OF TRICYCLIC SPIROLACTONES AND USES THEREOF IN TREATMENT AND MANAGEMENT OF PAIN” (Yissum Research Development Company of The Hebrew …, priority 2017, published 2021).
“And” between values parts separate entries of the source, which are not always exact repeats. Identical values can stand only once. “Also recorded” adds a separate entry of the source. Values belong to the compound of their own block, whether it stands above or below them.

Experiments:
Format in all cases: cell-based
rTRPV1 [1] = target: T1, rTRPV1 (Rattus norvegicus, UniProt O35433); experiment: calcium imaging of rTRPV1 stably expressed in HEK293 cells (concentration-response, capsazepine block); details: for EC50 / Hill coefficient n: normalized concentration-response, fit to the Hill equation, rTRPV1 stably expressed in HEK293 cells
T1 construct: expressed in transfected cells
Description: (§1) Each point represents the average (±SEM) response of 50 cells. […] Scale bar indicates level of intracellular calcium.
To further analyze the role of the aromatic anchor in TRPV1 activation by spirolactones, we compared the affinity of 13 to its vanilloid derivative 32.

rat TRPV1 (rTRPV1) [2] = target: T2, rat TRPV1 (rTRPV1) (Rattus norvegicus, UniProt O35433); experiment: live-cell calcium imaging of HEK293T cells transiently expressing rat TRPV1; details: for compound-evoked calcium response normalized to the capsaicin (2 μM)-evoked response: compound 300 μM (0.3 mM), fura-2-loaded HEK293T transiently expressing rTRPV1, only capsaicin positive cells analyzed
T2 construct: expressed in transfected cells; host or cells: HEK293T (transient)
Description: (3A) Top: Captured pseudocolor images of fura-2-loaded HEK293T cells transiently expressing rTRPV1, before (“Basal”) and after the application of synthesized tricyclic spirolactones (300 μM; ‘Comp.’), followed by the subsequent application of capsaicin (2 μM; “Cap”). Scale bar indicates level of intracellular calcium. Bottom: Box and whiskers plot showing the indicated compound (300 μM)-evoked calcium response of HEK293T cells expressing rTRPV1, normalized to the capsaicin (2 μM)-evoked response. Boxes represent the mean of 3-4 independent experiments (each n≥50 cells); only capsaicin-positive cells were analyzed. Statistical significance between the different compounds' normalized responses is indicated as follows: *p≤0.05; ***p≤0.001; ns, no statistical significance (ANOVA followed by multiple comparison test). (3B) Top: Captured pseudocolor images of fura-2-loaded HEK293T cells transiently expressing the wt rTRPV1 (“rV1”; top), chicken TRPV1 (“cV1”; middle), or the VBS mutated receptor rTRPV1-Y511G (“YG”; bottom), before (“Basal”) and after the application of compound 13 (300 μM; “13”), which was followed by the subsequent application of 2-APB (300 μM; “2APB”). Scale bar indicates level of intracellular calcium. Bottom: changes with time of intracellular calcium levels in fura-2-loaded HEK293T expressing rat TRPV1 (“rTRPV1”; red line), rat TRPV1-Y511G (“rTRPV1(YG)”; purple line), and chicken TRPV1 (“cTRPV1”; orange line) in response to compound 13 (300 μM; “13”; light gray bar), which was followed by the subsequent application of 2-APB (300 μM; “2APB”; gray bar). Each trace represents an average of 75-130 cells sensitive to 2-APB. […] (3C) Top: Captured pseudocolor images of fura-2-loaded HEK293T cells transiently expressing rTRPV1, before (“Basal”) and after the application of saturated tricyclic spirolactones (300 μM; “Comp.”), which was followed by the subsequent application of capsaicin (2 μM; “Cap”). Scale bar indicates the level of intracellular calcium. […] Boxes represent the mean of 3-4 independent experiments (each n≥50 cells); only capsaicin positive cells were analyzed. Statistical significance between the different compounds' normalized responses is indicated as follows: **p≤0.01; ***p≤0.001; ns, no statistical significance (ANOVA followed by multiple comparison test).
(§2) To examine whether the compact tricyclic spirolactones activate TRPV1, we scanned a library of synthesized compounds illustrated in FIG. 2C. […] To test this possibility, we recoded the response of rTRPV1 transiently expressed in HEK293T cells in the whole-cell or inside-out patch clamp configurations.

rTRPV1 [3] = target: T1, rTRPV1; experiment: patch clamp of rTRPV1 transiently expressed in HEK293T cells; details: voltage ramps between −80 and +80 mV; compound 32 1 mM, capsaicin 2 μM
Description: as §1, §2
TRPV1 is a non-selective cationic ion channel with a typical current profile. To examine whether our novel structure architecture activates the channel similarly as other VBS -associated agonists, we analyzed the current profile using the whole-cell configuration of the patch clamp technique. Using voltage ramps between −80 and +80 mV, we analyzed the channel response to 32 and capsaicin.

chicken TRPV1 = experiment: live-cell calcium imaging of HEK293T cells transiently expressing chicken TRPV1; details: compound 300 μM; followed by 2-APB 300 μM
Description: (§3) (3A) Top: Captured pseudocolor images of fura-2-loaded HEK293T cells transiently expressing rTRPV1, before (“Basal”) and after the application of synthesized tricyclic spirolactones (300 μM; ‘Comp.’), followed by the subsequent application of capsaicin (2 μM; “Cap”). Scale bar indicates level of intracellular calcium. Bottom: Box and whiskers plot showing the indicated compound (300 μM)-evoked calcium response of HEK293T cells expressing rTRPV1, normalized to the capsaicin (2 μM)-evoked response. Boxes represent the mean of 3-4 independent experiments (each n≥50 cells); only capsaicin-positive cells were analyzed. Statistical significance between the different compounds' normalized responses is indicated as follows: *p≤0.05; ***p≤0.001; ns, no statistical significance (ANOVA followed by multiple comparison test). (3B) Top: Captured pseudocolor images of fura-2-loaded HEK293T cells transiently expressing the wt rTRPV1 (“rV1”; top), chicken TRPV1 (“cV1”; middle), or the VBS mutated receptor rTRPV1-Y511G (“YG”; bottom), before (“Basal”) and after the application of compound 13 (300 μM; “13”), which was followed by the subsequent application of 2-APB (300 μM; “2APB”). Scale bar indicates level of intracellular calcium. […] Boxes represent the mean of 3-4 independent experiments (each n≥50 cells); only capsaicin positive cells were analyzed. […]

[4] = system: acutely dissociated trigeminal ganglia neurons; experiment: neuronal response of acutely dissociated trigeminal ganglia neurons; details: compared with capsaicin sensitivity
Description: To examine whether the compact tricyclic spirolactones activate TRPV1, we scanned a library of synthesized compounds illustrated in FIG. 2C. […] Although our compounds are less hydrophobic than other VBS-binding molecules (e.g., capsaicin), most synthesized compounds could not be prepared in physiological salt solutions (i.e., Ringer) at concentrations greater than 1 mM without adding cytotoxic levels of DMSO. […] To confirm that the observed calcium increase is a direct result of TRPV1 activation through the VBS, we used chicken TRPV1, which is insensitive to vanilloids28, and VBS-mutated rat TRPV1 (rTRPV1(Y511G)). […] The functionality and expression of these channels were verified by their sensitivity to 2-aminoethoxydiphenyl borate (2-APB), a non-VBS TRPV1 activator. We next investigated the selectivity of compound 13 to TRPV1 by examining the neuronal response of acutely dissociated trigeminal ganglia neurons. […] A possible explanation to the observed lower response of 13 in comparison to capsaicin might be the accessibility of the compound to the intracellular VBS. To test this possibility, we recoded the response of rTRPV1 transiently expressed in HEK293T cells in the whole-cell or inside-out patch clamp configurations.

rTRPV1(Y511G) = target: T3, rTRPV1(Y511G) (Rattus norvegicus, UniProt O35433, Y511G); experiment: live-cell calcium imaging of HEK293T cells transiently expressing VBS-mutated rat TRPV1; details: compound 300 μM; followed by 2-APB 300 μM
T3 construct: expressed in transfected cells; host or cells: HEK293T (transient)
Description: as §3

rat TRPV1 (rTRPV1) [5] = target: T2, rat TRPV1 (rTRPV1); experiment: live-cell calcium imaging of HEK293T cells transiently expressing rat TRPV1; details: compound 18 at 0.3 mM or 1 mM applied before compound 13 (1 mM)

T2 sequence (O35433 whole entry): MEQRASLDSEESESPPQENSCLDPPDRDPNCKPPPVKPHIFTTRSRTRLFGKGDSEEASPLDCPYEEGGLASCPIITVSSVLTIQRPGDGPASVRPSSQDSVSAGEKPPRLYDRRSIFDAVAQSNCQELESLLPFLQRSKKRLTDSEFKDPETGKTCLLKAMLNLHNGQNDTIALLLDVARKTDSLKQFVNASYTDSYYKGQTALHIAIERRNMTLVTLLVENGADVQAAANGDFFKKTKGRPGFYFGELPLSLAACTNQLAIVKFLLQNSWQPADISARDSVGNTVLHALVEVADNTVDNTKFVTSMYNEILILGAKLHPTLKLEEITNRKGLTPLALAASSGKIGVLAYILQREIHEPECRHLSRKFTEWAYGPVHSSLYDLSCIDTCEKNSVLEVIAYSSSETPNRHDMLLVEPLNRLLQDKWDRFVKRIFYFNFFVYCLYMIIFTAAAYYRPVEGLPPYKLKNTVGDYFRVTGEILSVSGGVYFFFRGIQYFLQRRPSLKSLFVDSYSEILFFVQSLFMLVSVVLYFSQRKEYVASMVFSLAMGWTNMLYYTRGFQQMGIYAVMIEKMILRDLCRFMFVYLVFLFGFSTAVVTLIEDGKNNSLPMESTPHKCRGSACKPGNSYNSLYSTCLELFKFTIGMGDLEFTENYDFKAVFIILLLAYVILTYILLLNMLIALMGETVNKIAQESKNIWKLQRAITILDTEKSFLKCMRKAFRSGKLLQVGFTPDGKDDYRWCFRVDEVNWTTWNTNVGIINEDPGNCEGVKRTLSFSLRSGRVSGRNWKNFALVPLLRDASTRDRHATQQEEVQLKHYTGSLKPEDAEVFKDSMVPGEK
T1 sequence (O35433 whole entry): as above
T3 sequence (O35433 whole entry Y511G): as the sequence (O35433 whole entry) above, with Y511G counted along it

SMILES: Oc1cc2c(cc1O)CN(C(=S)NCCc1ccc(Cl)cc1)CCC2 [capsazepine, reference compound]
inhibition of TRPV1 activation by compound 32 (rTRPV1 [1]; CPZ 20 μM, pre-incubation or application after pre-activation by 32 (100 and 300 μM)): resulted in channel inhibition

SMILES: O=C1O[C@@]23CCCC[C@H]2CC[C@H]3[C@H]1Cc1ccccc1 [Compound 34]
compound-evoked calcium response normalized to the capsaicin (2 μM)-evoked response (rat TRPV1 (rTRPV1) [2]): significant channel activation
time course of the evoked calcium response (rat TRPV1 (rTRPV1) [2]; compound 300 μM, compared to compound 13 or 32): transiently response

SMILES: COc1cc(CNC(=O)CCCC/C=C/C(C)C)ccc1O [capsaicin, reference compound]
current-voltage profile, whole-cell patch clamp (rTRPV1 [3]): robust, outwardly rectifying currents of similar magnitude

SMILES: O=C1C[C@@H]2CC[C@H]3C/C(=C/c4ccccc4)C[C@@]23O1 [Compound 23]
compound-evoked calcium response normalized to the capsaicin (2 μM)-evoked response (rat TRPV1 (rTRPV1) [2]): no activity was detected

SMILES: COc1cc(C[C@H]2C(=O)O[C@@]34CC=CC[C@H]3CC[C@@H]24)ccc1O [Compound 32]
compound-evoked calcium response normalized to the capsaicin (2 μM)-evoked response (rat TRPV1 (rTRPV1) [2]): strongest response; also recorded: capsaicin-like activity
EC50 (rTRPV1 [1]): 12.8 ± 1.6 µM
Hill coefficient n (rTRPV1 [1]): 1.4 and 1.4±0.2
current-voltage profile, whole-cell patch clamp (rTRPV1 [3]): robust, outwardly rectifying currents of similar magnitude; also recorded: elicits the typical TRPV1 outwardly rectifying current

SMILES: O=C1O[C@@]23CC=CC[C@H]2CC[C@H]3[C@H]1Cc1ccccc1 [Compound 31]
compound-evoked calcium response normalized to the capsaicin (2 μM)-evoked response (rat TRPV1 (rTRPV1) [2]): strongest response; also recorded: capsaicin-like activity

Now from value to compound, other results behind:

compound-evoked calcium response normalized to the capsaicin (2 μM)-evoked response (rat TRPV1 (rTRPV1) [2]): active compounds
SMILES: CC1C[C@H]2CCC[C@H]3CC(=O)O[C@@]23C1 (some centres unmarked) [Compound 15]

compound-evoked calcium response normalized to the capsaicin (2 μM)-evoked response (rat TRPV1 (rTRPV1) [2]): unexpectedly robust response
activation of VBS-mutated rTRPV1-Y511G (intracellular calcium) (rTRPV1(Y511G)): did not activate
EC50 (rTRPV1 [1]): 127 ± 8.9 µM
Hill coefficient n (rTRPV1 [1]): 2.7 and 2.7±0.5
SMILES: O=C1C[C@@H]2CC[C@@H]3CC=CC[C@]32O1 [Compound 13]
activation of chicken TRPV1 (intracellular calcium) (chicken TRPV1): did not activate
selectivity to TRPV1: neuronal response [4]: activated only capsaicin sensitive neurons

compound-evoked calcium response normalized to the capsaicin (2 μM)-evoked response (rat TRPV1 (rTRPV1) [2]): active compounds
SMILES: C=C1C[C@H]2CCC[C@H]3CC(=O)O[C@@]23C1 [Compound 10]

inhibitory effect on the response of compound 13 (rat TRPV1 (rTRPV1) [5]): had no effect
SMILES: O=C1C[C@@H]2CC[C@@H]3CCCC[C@]32O1 [Compound 18]
compound-evoked calcium response normalized to the capsaicin (2 μM)-evoked response (rat TRPV1 (rTRPV1) [2]): most dramatic decrease in the level of activation
